Values of other authors, collected in US20080114046A1, “Pharmaceutical Combination of Angiotensin II Antagonists and Angiotensin I Converting Enzyme Inhibitors” (Boehringer Ingelheim International GmbH, priority 2002, published 2008).

Experiments:
[1] = first clinical trials
[2] = normotensive patients with diabetic nephropathy; losartan added to enalapril
[3] = HOPE study, treatment with ACE inhibitor ramipril

| SMILES | renoprotective effect [1] | antiproteinuric effect of enalapril [2] | reduction of the risk of the combined primary cardiovascular outcome [3] [%] |
| --- | --- | --- | --- |
| CCCCC1=NC2(CCCC2)C(=O)N1Cc1ccc(-c2ccccc2-c2nnn[nH]2)cc1 [irbesartan] | renoprotective effect | – | – |
| CCCCc1nc(Cl)c(CO)n1Cc1ccc(-c2ccccc2-c2nn[nH]n2)cc1 [losartan] | renoprotective effect | potentiated | – |
| CCOC(=O)[C@H](CCc1ccccc1)N[C@@H](C)C(=O)N1[C@H](C(=O)O)C[C@@H]2CCC[C@@H]21 [ramipril] | – | – | 22 |
